Drawing on PubChem BioAssay (NCI), this text covers GI50 and TGI for 19 compounds.

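96-well plates; 48 h exposure; 5 concentrations. Endpoints by linear interpolation between flanking doses. Not reached: highest tested concentration assigned. GI50 is the concentration that inhibits growth by half. TGI: total growth inhibition.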

Test systems include HCT-116 colon; HCT-15 colon; KM12 colon; MOLT-4 leukemia; OVCAR-5 ovarian; RPMI-8226 leukemia; SNB-75 CNS; SR leukemia; UACC-257 melanoma; UO-31 renal.
What all share (test): inhibition of tumour cell growth, NCI panel, 48 h

As for `CC(C)Oc1ccc(C(=O)Cn2ccnc2)cc1-n1c(CN2CCN(C(=O)COc3ccc(Cl)cc3)CC2)nc2ccccc2c1=O`, the GI50 in the assay on HCT-116 colon is 8.68 µM; in the assay with HCT-15 colon it was 12.3 µM; with KM12 colon, 17 µM; in the assay with MOLT-4 leukemia, 7.55 µM; with OVCAR-5 ovarian, 17.6 µM; in the assay on RPMI-8226 leukemia, 11.5 µM. Besides, the GI50 in the assay on SNB-75 CNS was 5.49 µM; in the assay with SR leukemia, 5.64 µM; in the assay on UACC-257 melanoma, 13.8 µM; in the assay with UO-31 renal, 1.56 µM. Moreover, the TGI with HCT-116 colon is 24.9 µM; in the assay with HCT-15 colon, 32.6 µM; with KM12 colon it was 36.2 µM; in the assay with MOLT-4 leukemia, above 71.8 µM; in the assay with OVCAR-5 ovarian it was 42.4 µM; with RPMI-8226 leukemia, 40.4 µM. For the same compound, the TGI was 32.2 µM in the assay on SNB-75 CNS, 36.8 µM with SR leukemia, 39.6 µM in the assay on UACC-257 melanoma and 2.98 µM with UO-31 renal.
`c1ccc2[nH]c(CNc3ccc(C4C[Se]N=N4)cc3)nc2c1` (stereo not given): the TGI with HCT-116 colon was above 100 µM; with HCT-15 colon, above 100 µM; in the assay with KM12 colon, above 100 µM; in the assay with MOLT-4 leukemia, 40.5 µM; with OVCAR-5 ovarian it was above 100 µM; with RPMI-8226 leukemia, 81.3 µM. The TGI is above 100 µM in the assay on SNB-75 CNS, 36 µM with SR leukemia and above 100 µM in the assay with UO-31 renal.
As for `CC1(O)CCn2c(=O)c3cc4ccccc4cc3c(=O)n2C1O` (stereo not given), the TGI in the assay on HCT-116 colon, in the assay with HCT-15 colon, with KM12 colon, in the assay on MOLT-4 leukemia, with OVCAR-5 ovarian and with RPMI-8226 leukemia was above 100 µM in each case. The TGI in the assay on SR leukemia and in the assay with UACC-257 melanoma was above 100 µM each time.
With `[2H]c1nc(=Nc2cc(NC(=O)C=C)c(N(C)CCN(C)C)cc2OC)[nH]c(-c2cn(C([2H])([2H])[2H])c3ccccc23)c1[2H]`, the GI50 in the assay on HCT-116 colon was 1.48 µM; in the assay with HCT-15 colon it was 1.44 µM; with KM12 colon it was 3.15 µM; in the assay with MOLT-4 leukemia it was 1.14 µM; in the assay with OVCAR-5 ovarian it was 1.04 µM; in the assay on SNB-75 CNS, 10.8 µM. Besides, the results for the GI50 in the assay on SR leukemia, in the assay on UACC-257 melanoma and in the assay with UO-31 renal were 1.23 µM, 2.19 µM and 0.943 µM, respectively. Besides, the TGI with HCT-116 colon was determined as 2.83 µM; in the assay with HCT-15 colon, 3.05 µM; in the assay with KM12 colon, 11.5 µM; with MOLT-4 leukemia, 2.86 µM; with OVCAR-5 ovarian, 2.93 µM; in the assay with SNB-75 CNS, 24.8 µM. Further, the TGI was 4.02 µM in the assay with SR leukemia, 3.88 µM in the assay on UACC-257 melanoma and 2.25 µM in the assay on UO-31 renal.
Turning to `CC1(C)CC(=O)C(CC2C(=O)c3ccccc3C2=O)C(=O)C1`, the TGI in the assay on HCT-116 colon, with HCT-15 colon, with KM12 colon, with MOLT-4 leukemia, with OVCAR-5 ovarian and in the assay on SNB-75 CNS was above 100 µM each time. Besides, the TGI in the assay with SR leukemia, in the assay on UACC-257 melanoma and in the assay on UO-31 renal was above 100 µM throughout.
Consider `COc1c(O)c(OC)c2oc(-c3ccc(O)cc3)c(OC)c(=O)c2c1O`, for which the TGI in the assay on HCT-116 colon, in the assay on HCT-15 colon, with KM12 colon, in the assay with MOLT-4 leukemia, in the assay on OVCAR-5 ovarian and in the assay on RPMI-8226 leukemia was above 100 µM in each case. Moreover, the TGI in the assay on SR leukemia, in the assay on UACC-257 melanoma and in the assay on UO-31 renal was above 100 µM throughout.
Consider `O=C1C2=C(CCC2)Nc2cccc3ncn1c23`, for which the TGI in the assay on HCT-116 colon, with HCT-15 colon, in the assay with KM12 colon, with MOLT-4 leukemia, in the assay on OVCAR-5 ovarian and in the assay with RPMI-8226 leukemia was above 100 µM in each case. Further, the TGI in the assay on SR leukemia, in the assay on UACC-257 melanoma and with UO-31 renal was above 100 µM in each case.
For `C=CC1=C(C)C2=NC1=CC1=NC(=CC3=C(C)C4=C(O)[C@H](C(=O)OC)C(=C5NC(=C2)[C@@H](C)[C@@H]5CCC(=O)O)C4=N3)C(CC)=C1C`, the TGI with HCT-116 colon was above 59 µM; in the assay with HCT-15 colon it was 9.72 µM; in the assay with KM12 colon it was above 20.5 µM; in the assay on OVCAR-5 ovarian it was above 23.7 µM; in the assay with SNB-75 CNS, 8.25 µM; with SR leukemia, 1.5 µM. The TGI in the assay with UACC-257 melanoma was found to be 42.7 µM; with UO-31 renal, 11.7 µM.
For `O=C1CNS(=O)(=O)N1`, the TGI in the assay with HCT-116 colon, in the assay on KM12 colon, in the assay on MOLT-4 leukemia, in the assay with RPMI-8226 leukemia, in the assay with SNB-75 CNS and in the assay with SR leukemia was above 100 µM in each case. Further, the TGI in the assay on UACC-257 melanoma and in the assay on UO-31 renal was above 100 µM throughout.
Regarding `CN(C)C(=S)Nc1nnc(Nc2ccccc2)s1`, the TGI in the assay with HCT-116 colon, in the assay with HCT-15 colon, in the assay with MOLT-4 leukemia, in the assay on OVCAR-5 ovarian, in the assay on SNB-75 CNS and in the assay with SR leukemia was above 100 µM in each case. The TGI in the assay with UACC-257 melanoma and in the assay with UO-31 renal was above 100 µM each time.
For the compound `CCCCCCC(C)CCCCCCCCCCC(=O)O` (stereo not given), the TGI with HCT-116 colon, with KM12 colon, in the assay with MOLT-4 leukemia, with OVCAR-5 ovarian, in the assay on RPMI-8226 leukemia and in the assay with SNB-75 CNS was above 100 µM each time. Also, the TGI in the assay on SR leukemia, with UACC-257 melanoma and in the assay with UO-31 renal was above 100 µM throughout.
Consider `CSc1ccc(N(C)c2nc(C)nc3c2CCC3)cc1`, for which the GI50 in the assay on HCT-15 colon was below 0.01 µM; in the assay with KM12 colon it was below 0.01 µM; with MOLT-4 leukemia, below 0.01 µM; in the assay with OVCAR-5 ovarian, 1.23 µM; in the assay on RPMI-8226 leukemia, below 0.01 µM; in the assay on SNB-75 CNS, below 0.01 µM. For the same compound, the figures for the GI50 in the assay on SR leukemia and with UACC-257 melanoma were below 0.01 µM and 11.6 µM, respectively. Further, the TGI in the assay with HCT-15 colon was above 100 µM; in the assay with KM12 colon, 12.9 µM; in the assay on MOLT-4 leukemia it was 25.4 µM; in the assay with OVCAR-5 ovarian it was above 100 µM; in the assay on RPMI-8226 leukemia, 25 µM; in the assay with SNB-75 CNS, 42.1 µM. In addition, the values for the TGI in the assay on SR leukemia and with UACC-257 melanoma were 11.6 µM and 48.4 µM, respectively.
For the compound `O=C(Cl)C1=C(c2ccccc2)C1c1ccccc1` (stereo not given), the TGI in the assay on HCT-116 colon, in the assay on HCT-15 colon, in the assay with KM12 colon, in the assay on MOLT-4 leukemia, in the assay with OVCAR-5 ovarian and in the assay on RPMI-8226 leukemia was above 100 µM each time. Moreover, the TGI in the assay on SNB-75 CNS, with SR leukemia and in the assay on UACC-257 melanoma was above 100 µM throughout.
With `CN1c2ccccc2SC2C(c3ccccc3)=NOC21` (stereo not given), the TGI with HCT-116 colon is 60.7 µM; in the assay with HCT-15 colon it was 43.7 µM; in the assay on KM12 colon it was above 100 µM; in the assay on MOLT-4 leukemia, above 100 µM; with OVCAR-5 ovarian it was above 100 µM; with SNB-75 CNS it was 56.6 µM. Further, the TGI with SR leukemia and with UO-31 renal was above 100 µM throughout.
For the compound `CCCCCCCCCCCCCC[n+]1cccc(C(N)=O)c1`, the GI50 with HCT-116 colon was 1.61 µM; in the assay on HCT-15 colon, 13.5 µM; in the assay on MOLT-4 leukemia, 1.67 µM; in the assay with OVCAR-5 ovarian, 1.62 µM; in the assay on RPMI-8226 leukemia, 1.87 µM; in the assay on SNB-75 CNS, 1.06 µM. In addition, the GI50 with SR leukemia was 1.45 µM; in the assay with UACC-257 melanoma, 2.34 µM; in the assay with UO-31 renal, 9.42 µM. Besides, the TGI in the assay with HCT-116 colon is 3.97 µM; in the assay on HCT-15 colon it was 58.3 µM; with MOLT-4 leukemia, 4.26 µM; with OVCAR-5 ovarian, 6.25 µM; with RPMI-8226 leukemia, 4.44 µM; in the assay on SNB-75 CNS it was 2.57 µM. The TGI was found to be 3.94 µM with SR leukemia, 8.46 µM with UACC-257 melanoma and 26.3 µM in the assay with UO-31 renal.
Regarding `COc1ccc2c(NCCCCCCNc3c4ccccc4nc4cc(OC)ccc34)c3ccccc3nc2c1`, the TGI with HCT-116 colon is 0.333 µM; in the assay with HCT-15 colon, 9.36 µM; with KM12 colon, 2.03 µM; in the assay on OVCAR-5 ovarian it was 1.89 µM; in the assay with RPMI-8226 leukemia it was 0.717 µM; in the assay on SNB-75 CNS, 1.74 µM. Moreover, the TGI in the assay with SR leukemia stood at 1.54 µM; in the assay with UACC-257 melanoma it was 4.12 µM; in the assay on UO-31 renal, 37.5 µM.
Turning to `CC(C)(C)OC(=O)NC1CCCC1=O` (stereo not given), the TGI with HCT-116 colon, with KM12 colon, in the assay with MOLT-4 leukemia, with OVCAR-5 ovarian, in the assay with SNB-75 CNS and in the assay with SR leukemia was above 100 µM each time. Further, the TGI in the assay with UACC-257 melanoma and in the assay with UO-31 renal was above 100 µM each time.
As for `O=c1[nH]c2cc([N+](=O)[O-])ccc2nc1/C(=N\Nc1ccccc1)C(O)c1ccc2c(c1)OCO2` (stereo not given), the TGI is above 100 µM in the assay on HCT-116 colon; 58.2 µM in the assay with HCT-15 colon; above 100 µM with KM12 colon; above 100 µM with MOLT-4 leukemia; above 100 µM in the assay on RPMI-8226 leukemia; above 100 µM in the assay on SNB-75 CNS. Further, the TGI in the assay on SR leukemia, with UACC-257 melanoma and in the assay on UO-31 renal was above 100 µM throughout.
For the compound `Cc1cccc(C)c1N1C(=O)C(=O)C(c2nc3ccccc3s2)/C(=N/NC(=O)NN)C1=O` (stereo not given), the TGI with HCT-116 colon, in the assay with HCT-15 colon, in the assay on KM12 colon, in the assay on MOLT-4 leukemia, with SNB-75 CNS and in the assay on SR leukemia was above 100 µM throughout. The TGI in the assay on UACC-257 melanoma and with UO-31 renal was above 100 µM each time.
